Target: T1, CXCR3 (Homo sapiens, UniProt P49682)
T1 construct: host or cells: CHO-K1 (cAMP Hunter CHOK1 CXCR3 Gi cell line)
T1 sequence (P49682 1-368): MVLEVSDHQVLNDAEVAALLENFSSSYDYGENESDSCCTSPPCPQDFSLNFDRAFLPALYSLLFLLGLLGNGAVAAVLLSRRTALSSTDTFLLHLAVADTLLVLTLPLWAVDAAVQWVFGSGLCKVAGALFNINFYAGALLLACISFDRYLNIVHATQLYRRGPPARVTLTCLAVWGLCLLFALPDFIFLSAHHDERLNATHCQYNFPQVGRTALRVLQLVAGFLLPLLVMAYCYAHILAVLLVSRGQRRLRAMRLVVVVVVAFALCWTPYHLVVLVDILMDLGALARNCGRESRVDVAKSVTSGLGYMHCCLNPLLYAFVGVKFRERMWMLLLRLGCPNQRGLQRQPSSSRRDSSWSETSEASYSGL
Experiment: CXCR3 cAMP agonist assay (cAMP Hunter CHOK1 CXCR3 Gi cell line, forskolin-stimulated, HitHunter cAMP detection)
Assay type: cell-based
Conditions: cAMP Hunter CHOK1 CXCR3 Gi cells, 20 μM forskolin, 30 minutes; read-out: Activity (CXCR3 cAMP agonist assay compound EC50)
In short: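 CHOK1 cells expressing human CXCR3 with Gi coupling, 50,000/well in suspension in HBSS/10 mM HEPES/0.1% BSA pH 7.4, were co-treated with 20 μM forskolin and compound (12-point, 0-10 μM, 1% DMSO) for 30 min. cAMP was read by enzyme-complementation luminescence; CXCL11 dose response set maximum efficacy.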

Compound	EC50
Cc1cc(NC(=O)[C@H](CCN)NC(=O)[C@@H]2Cc3ccccc3CN2C(=O)CCC(=O)N2CCCC[C@H]2C)ccc1Cl [Compound 12-25]	< 50 nM
Cc1cc(NC(=O)[C@H](CCN)NC(=O)[C@@H]2Cc3ccccc3CN2C(=O)CCC(=O)N2CCC(C)(C)CC2)ccc1Cl [Compound 12-28]	< 50 nM
Cc1cc(NC(=O)[C@H](CCN)NC(=O)[C@@H]2Cc3ccccc3CN2C(=O)CCC(=O)N2CCC(C)(C)C2)ccc1Cl [Compound 12-29]	< 50 nM
Cc1cc(NC(=O)[C@H](CCN)NC(=O)[C@@H]2Cc3ccccc3CN2C(=O)CCC(=O)N2CCCC2(C)C)ccc1Cl [Compound 12-31]	< 50 nM
Cc1cc(NC(=O)[C@H](CCN)NC(=O)[C@@H]2Cc3ccccc3CN2C(=O)CCC(=O)N2CC3CCC2C3)ccc1Cl (stereo partly drawn) [Compound 12-32]	< 50 nM
Cc1cc(NC(=O)[C@H](CCN)NC(=O)[C@@H]2Cc3ccccc3CN2C(=O)CCC(=O)N2CCN(C)[C@H](C)C2)ccc1Cl [Compound 12-35]	< 50 nM
Cc1cc(NC(=O)[C@H](CCN)NC(=O)[C@@H]2Cc3ccccc3CN2C(=O)CCC(=O)N2CC(Cc3ccccc3)C2)ccc1Cl [Compound 12-38]	250 to 500 nM
Cc1cc(NC(=O)[C@H](CCN)NC(=O)[C@@H]2Cc3ccccc3CN2C(=O)CCC(=O)N2C[C@H](C)C[C@H](C)C2)ccc1Cl [Compound 12-39]	< 50 nM
Cc1cc(NC(=O)[C@H](CCN)NC(=O)[C@@H]2Cc3ccccc3CN2C(=O)CCC(=O)N2[C@H](C)CCC[C@@H]2C)ccc1Cl [Compound 12-43]	< 50 nM
Cc1cc(NC(=O)[C@H](CCN)NC(=O)[C@@H]2Cc3ccccc3CN2C(=O)CCC(=O)N2CCC(C#N)CC2)ccc1Cl [Compound 12-44]	< 50 nM
Cc1cc(NC(=O)[C@H](CCN)NC(=O)[C@@H]2Cc3ccccc3CN2C(=O)CCC(=O)N2CCC[C@H]2C)ccc1Cl [Compound 12-46]	< 50 nM
Cc1cc(NC(=O)[C@H](CCN)NC(=O)[C@@H]2Cc3ccccc3CN2C(=O)CCC(=O)N2CCC(O)C2)ccc1Cl (stereo partly drawn) [Compound 12-48]	50 to 250 nM
Cc1cc(NC(=O)[C@H](CCN)NC(=O)[C@@H]2Cc3ccccc3CN2C(=O)CCC(=O)N2CCCC2C(F)(F)F)ccc1Cl (stereo partly drawn) [Compound 12-51]	< 50 nM
Cc1cc(NC(=O)[C@H](CCN)NC(=O)[C@@H]2Cc3ccccc3CN2C(=O)CCC(=O)N2CCC(C(F)(F)F)C2)ccc1Cl (stereo partly drawn) [Compound 12-52]	< 50 nM
Cc1cc(NC(=O)[C@H](CCN)NC(=O)[C@@H]2Cc3ccccc3CN2C(=O)CCC(=O)N2CCCC2c2ccccc2)ccc1Cl (stereo partly drawn) [Compound 12-53]	< 50 nM
Cc1cc(NC(=O)[C@H](CCN)NC(=O)[C@@H]2Cc3ccccc3CN2C(=O)CCC(=O)N2CCCC[C@@H]2C)ccc1Cl [Compound 12-56]	< 50 nM
Cc1cc(NC(=O)[C@H](CCN)NC(=O)[C@@H]2Cc3ccccc3CN2C(=O)CCC(=O)N2CCC[C@@H](C)C2)ccc1Cl [Compound 12-57]	< 50 nM
Cc1cc(NC(=O)[C@H](CCN)NC(=O)[C@@H]2Cc3ccccc3CN2C(=O)CCC(=O)N2CCC(C(C)C)CC2)ccc1Cl [Compound 12-60]	< 50 nM
CCC1CCN(C(=O)CCC(=O)N2Cc3ccccc3C[C@H]2C(=O)N[C@@H](CCN)C(=O)Nc2ccc(Cl)c(C)c2)CC1 [Compound 12-61]	< 50 nM
COC1CCN(C(=O)CCC(=O)N2Cc3ccccc3C[C@H]2C(=O)N[C@@H](CCN)C(=O)Nc2ccc(Cl)c(C)c2)C1 (stereo partly drawn) [Compound 12-64]	< 50 nM
CC[C@@H]1CCCN1C(=O)CCC(=O)N1Cc2ccccc2C[C@H]1C(=O)N[C@@H](CCN)C(=O)Nc1ccc(Cl)c(C)c1 [Compound 12-65]	< 50 nM
Cc1cc(NC(=O)[C@H](CCN)NC(=O)[C@@H]2Cc3ccccc3CN2C(=O)CCC(=O)N2CC3CC(C3)C2)ccc1Cl [Compound 12-66]	< 50 nM
Cc1cc(NC(=O)[C@H](CCN)NC(=O)[C@@H]2Cc3ccccc3CN2C(=O)CCC(=O)N2CC(C)C(C)C2)ccc1Cl (stereo partly drawn) [Compound 12-68]	< 50 nM
Cc1cc(NC(=O)[C@H](CCN)NC(=O)[C@@H]2Cc3ccccc3CN2C(=O)CCC(=O)N2CCC3(CC3)C2)ccc1Cl [Compound 12-69]	< 50 nM
Cc1cc(NC(=O)[C@H](CCN)NC(=O)[C@@H]2Cc3ccccc3CN2C(=O)CCC(=O)N2CCC(C#N)C2)ccc1Cl (stereo partly drawn) [Compound 12-70]	50 to 250 nM
Cc1cc(NC(=O)[C@H](CCN)NC(=O)[C@@H]2Cc3ccccc3CN2C(=O)CCC(=O)N2CCC(C(C)C)C2)ccc1Cl (stereo partly drawn) [Compound 12-74]	< 50 nM
Cc1cc(NC(=O)[C@H](CCN)NC(=O)[C@@H]2Cc3ccccc3CN2C(=O)CCC(=O)N2CCC(C(C)(C)C)C2)ccc1Cl (stereo partly drawn) [Compound 12-75]	< 50 nM

More lines, now with the values ahead:

EC50	Compound
< 50 nM	Cc1cc(NC(=O)[C@H](CCN)NC(=O)[C@@H]2Cc3ccccc3CN2C(=O)CCC(=O)N2CCCCC2(C)C)ccc1Cl [Compound 12-26]
50 to 250 nM	Cc1cc(NC(=O)[C@H](CCN)NC(=O)[C@@H]2Cc3ccccc3CN2C(=O)CCC(=O)N2CCOC[C@@H]2C)ccc1Cl [Compound 12-27]
50 to 250 nM	Cc1cc(NC(=O)[C@H](CCN)NC(=O)[C@@H]2Cc3ccccc3CN2C(=O)CCC(=O)N2CCC2)ccc1Cl [Compound 12-30]
50 to 250 nM	Cc1cc(NC(=O)[C@H](CCN)NC(=O)[C@@H]2Cc3ccccc3CN2C(=O)CCC(=O)N2CCN(C3CC3)CC2)ccc1Cl [Compound 12-33]
50 to 250 nM	Cc1cc(NC(=O)[C@H](CCN)NC(=O)[C@@H]2Cc3ccccc3CN2C(=O)CCC(=O)N2CCCN(C)CC2)ccc1Cl [Compound 12-34]
< 50 nM	Cc1cc(NC(=O)[C@H](CCN)NC(=O)[C@@H]2Cc3ccccc3CN2C(=O)CCC(=O)N2CCN(C)[C@@H](C)C2)ccc1Cl [Compound 12-36]
50 to 250 nM	Cc1cc(NC(=O)[C@H](CCN)NC(=O)[C@@H]2Cc3ccccc3CN2C(=O)CCC(=O)N2CCN(C)C(=O)C2)ccc1Cl [Compound 12-37]
< 50 nM	Cc1cc(NC(=O)[C@H](CCN)NC(=O)[C@@H]2Cc3ccccc3CN2C(=O)CCC(=O)N2CC(C(C)(C)C)C2)ccc1Cl [Compound 12-40]
< 50 nM	Cc1cc(NC(=O)[C@H](CCN)NC(=O)[C@@H]2Cc3ccccc3CN2C(=O)CCC(=O)N2C(C)CCCC2C)ccc1Cl (stereo partly drawn) [Compound 12-41]
< 50 nM	COC1CCN(C(=O)CCC(=O)N2Cc3ccccc3C[C@H]2C(=O)N[C@@H](CCN)C(=O)Nc2ccc(Cl)c(C)c2)CC1 [Compound 12-42]
< 50 nM	Cc1cc(NC(=O)[C@H](CCN)NC(=O)[C@@H]2Cc3ccccc3CN2C(=O)CCC(=O)N2CCC[C@@H]2C)ccc1Cl [Compound 12-45]
< 50 nM	Cc1cc(NC(=O)[C@H](CCN)NC(=O)[C@@H]2Cc3ccccc3CN2C(=O)CCC(=O)N2C(C)CCC2C)ccc1Cl (stereo partly drawn) [Compound 12-47]
< 50 nM	Cc1cc(NC(=O)[C@H](CCN)NC(=O)[C@@H]2Cc3ccccc3CN2C(=O)CCC(=O)N2CC[C@H](N(C)C)C2)ccc1Cl [Compound 12-49]
< 50 nM	Cc1cc(NC(=O)[C@H](CCN)NC(=O)[C@@H]2Cc3ccccc3CN2C(=O)CCC(=O)N2CC[C@@H](N(C)C)C2)ccc1Cl [Compound 12-50]
50 to 250 nM	Cc1cc(NC(=O)[C@H](CCN)NC(=O)[C@@H]2Cc3ccccc3CN2C(=O)CCC(=O)N2CCC(c3ccccc3)C2)ccc1Cl (stereo partly drawn) [Compound 12-54]
< 50 nM	Cc1cc(NC(=O)[C@H](CCN)NC(=O)[C@@H]2Cc3ccccc3CN2C(=O)CCC(=O)N2CC3CCCCC3C2)ccc1Cl (stereo partly drawn) [Compound 12-55]
< 50 nM	Cc1cc(NC(=O)[C@H](CCN)NC(=O)[C@@H]2Cc3ccccc3CN2C(=O)CCC(=O)N2CCC[C@H](C)C2)ccc1Cl [Compound 12-58]
< 50 nM	Cc1cc(NC(=O)[C@H](CCN)NC(=O)[C@@H]2Cc3ccccc3CN2C(=O)CCC(=O)N2CCC3(CCC3)CC2)ccc1Cl [Compound 12-59]
< 50 nM	Cc1cc(NC(=O)[C@H](CCN)NC(=O)[C@@H]2Cc3ccccc3CN2C(=O)CCC(=O)N2CCCC(O)C2)ccc1Cl (stereo partly drawn) [Compound 12-62]
< 50 nM	Cc1cc(NC(=O)[C@H](CCN)NC(=O)[C@@H]2Cc3ccccc3CN2C(=O)CCC(=O)N2CCCC(F)C2)ccc1Cl (stereo partly drawn) [Compound 12-63]
< 50 nM	Cc1cc(NC(=O)[C@H](CCN)NC(=O)[C@@H]2Cc3ccccc3CN2C(=O)CCC(=O)N2CCC(F)CC2)ccc1Cl [Compound 12-67]
< 50 nM	Cc1cc(NC(=O)[C@H](CCN)NC(=O)[C@@H]2Cc3ccccc3CN2C(=O)CCC(=O)N2CCCC2C(C)C)ccc1Cl (stereo partly drawn) [Compound 12-71]
< 50 nM	Cc1cc(NC(=O)[C@H](CCN)NC(=O)[C@@H]2Cc3ccccc3CN2C(=O)CCC(=O)N2CCCCC23CCC3)ccc1Cl [Compound 12-72]
< 50 nM	Cc1cc(NC(=O)[C@H](CCN)NC(=O)[C@@H]2Cc3ccccc3CN2C(=O)CCC(=O)N2CCCC23CCC3)ccc1Cl [Compound 12-73]
< 50 nM	Cc1cc(NC(=O)[C@H](CCN)NC(=O)[C@@H]2Cc3ccccc3CN2C(=O)CCC(=O)N2CCc3ccccc3C2)ccc1Cl [Compound 12-76]
< 50 nM	Cc1cc(NC(=O)[C@H](CCN)NC(=O)[C@@H]2Cc3ccccc3CN2C(=O)CCC(=O)N2CCCC2C#N)ccc1Cl (stereo partly drawn) [Compound 12-77]
< 50 nM	Cc1cc(NC(=O)[C@H](CCN)NC(=O)[C@@H]2Cc3ccccc3CN2C(=O)CCC(=O)N2CCCC3(CCC3)C2)ccc1Cl [Compound 12-78]
